{"source": "patent US6815421B1", "about": "“Polypeptides for use in ameliorating effects of aging in mammals” (Osteopharm Inc., priority 2001, dated 2004)", "assay": "Body weight and DEXA body composition in aging intact and ovariectomized rats treated with polypeptide", "type": "in vivo, female Sprague-Dawley rats", "details": "for increase in bone mineral content / increase in body fat content: DEXA", "protocol": "Experiments were conducted using female Sprague-Dawley rats that were about 5 months old at the beginning of the experiments. The rats were obtained from Vivarium of the University of Toronto, Mississauga, Ontario, Canada.\nThe rats were housed in pairs in either a standard shoebox cage 15 cm in height (low cage) or a cage with 22 cm height (tall cage). Humidity was maintained at 50%; temperature 22° C.; dark/light cycle of 12 hours. The rats were fed Standard Purina Rat Chow (unlimited daily supply) and tap water ad libitum.\nOvariectomies were performed under general isofluorane anaesthesia. A 1.5 cm dorsal midline incision was made. The skin and subcutaneous tissue were separated by blunt dissection. A small incision was made on either side in the posterior abdominal muscle wall (approximately 0.5 cm) to expose the ovaries. The ovaries were removed together with the proximal ends of the Fallopian tubes after the ligation of the ovarian arteries. The wounds in the abdominal muscle wall were not stitched. The dorsal skin wound was closed by three surgical wound clips. Tamgesic (0.2 ml) was given subcutaneously for the relief of pain immediately after the operation.\nBody weight measurements were made by direct weighing with an electronic balance (to 0.01 g) and by DEXA measurement, Instrument: Hologic 4500A with program for regional measurement for small animals. The animals were scanned supine under general isofluorane anaesthesia. The whole body was scanned including the whole tail. The weights for the mineral content, the fat content and the lean body mass were summed to obtain total body weight.\nNon-treated (control) animals were injected subcutaneously daily with 400 μL of 20 mM sodium acetate (pH 4.5) 5 days per week. Treated animals were injected subcutaneously with 300 nmoles per kg of body weight of the test polypeptide (SEQ ID NO:1) in 400 μL of 20 mM sodium acetate (pH 4.5) daily five days per week. The treatment period was nine months. The material, chemically synthesized, was obtained from the Protein DNA Core facility of Queen's University, Kingston, Ontario, Canada. Purification, by HPLC, indicated the test compound to be at least 95% pure.\nDEXA measurements were evaluated as an indication of body composition. Through the attenuation of X-ray energy DEXA measurements provide an indication of the mass of various body tissues. In the Hologic DEXA instrument, the program measures the mass of bone tissue, fat and lean body mass (largely muscle mass). The sum of these measured masses represents total body mass. If this proposition is correct, then the total body mass measured by DEXA and measured directly by balance will be the same. Over the course of these experiments, 677 paired measurements of the body weight were made using the two methods. The results obtained (FIG. 1) indicate that there is a close relationship between the DEXA measurements and the measurements. It was thus concluded that body composition could be assessed using DEXA measurements.\nEight groups of rats were treated as follows:\nOvariectomies were performed at the age of 5 months. The ovariectomized animals were allowed to lose bone for two months following ovariectomy before the treatment began. A baseline measurement was made immediately prior to operation. Another pretreatment baseline measurement was made at the beginning of treatment, i.e. two months after ovariectomization. Measurements were made approximately monthly thereafter. At the end of the experiments, all animals were sacrificed by carbon dioxide narcosis.\nProcedures were carried out according to the following schedule: […]", "data": [{"substance": "Xaa1-Thr-GIn-Glu-His-Thr-Ala-Glu-Cys-Xaa10, where Xaa1 is N-acetyl arginine and Xaa10 is lysinamide (Ac-RTQEHTAECK-NH2) [SEQ ID NO:1, 10-mer, protected at both ends]", "values": [{"measurement": "change in lean body mass", "setting": "all groups of rats (intact and ovariectomized, treated and untreated), 10-month experimental period, FIGS. 6A to 7B", "result": "relatively small change"}, {"measurement": "increase in bone mineral content", "setting": "intact rats, FIG. 8", "result": "attenuation of the increase"}, {"measurement": "increase in body fat content", "setting": "intact rats, vs untreated (control) rats, reduction greatest in tall cages, FIG. 4", "result": "reduced"}, {"measurement": "age-related gain in total body weight", "setting": "intact rats, tall and low cages, 300 nmoles per kg s.c. daily five days per week, vs untreated, FIG. 2", "result": "lower age-related gain"}, {"measurement": "change in BMC/BW ratio with time", "setting": "intact rats, tall and low cages, vs untreated, FIGS. 10 and 11", "result": "changed much less"}, {"measurement": "change in LBM/BW ratio with time", "setting": "intact rats, tall and low cages, vs untreated, FIGS. 14 and 15", "result": "changed much less"}, {"measurement": "attenuating effect on change in LBM/BW ratio over time", "setting": "ovariectomized rats compared with intact rats, FIGS. 14 to 17", "result": "greater for intact rats than it was for ovariectomized rats"}, {"measurement": "increase in body fat content", "setting": "ovariectomized rats housed in low cages, FIG. 5", "result": "less so"}, {"measurement": "increase in body fat content", "setting": "ovariectomized rats housed in taller cages, FIG. 5", "result": "significantly smaller increase"}, {"measurement": "increase in bone mineral content", "setting": "ovariectomized rats, FIG. 9", "result": "attenuation of the increase"}, {"measurement": "overall weight gain", "setting": "ovariectomized rats, tall and low cages, 300 nmoles per kg s.c. daily five days per week, vs untreated, FIG. 3", "result": "relative decrease in overall weight gain"}, {"measurement": "attenuating effect on decrease in BMC/BW ratio with time", "setting": "ovariectomized rats, tall and low cages, compared with intact rats, FIGS. 12 and 13", "result": "less pronounced"}]}]}
